Measured values reported in ChEMBL document CHEMBL1201862, “PubChem BioAssay data set” (2004).
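Compound exposure: 48 hours, 5 concentrations, 96-well plates. GI50: concentration for 50% inhibition of growth.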 Active and inactive are the calls of the source. No stated cut-off is given here; in the data, active = GI50 up to about 1.1 µM and inactive = higher.

How the values were obtained:
Test in all cases: growth of human tumour cells (NCI), 48 h
786-0 = test system: 786-0
A498 = test system: A498
CAKI-1 = test system: CAKI-1
CCRF-CEM = test system: CCRF-CEM
HCT-116 = test system: HCT-116
HL-60 = test system: HL-60
HOP-62 = test system: HOP-62
Hs-578T = test system: Hs-578T
K562 = test system: K562
LOX IMVI = test system: LOX IMVI
M14 = test system: M14
MDA-MB-231 = test system: MDA-MB-231
NCI-H460 = test system: NCI-H460
NCI-H522 = test system: NCI-H522
OVCAR-4 = test system: OVCAR-4
OVCAR-8 = test system: OVCAR-8
SK-MEL-28 = test system: SK-MEL-28
SK-OV-3 = test system: SK-OV-3
UO-31 = test system: UO-31

| Structure (SMILES) | GI50 (786-0) | GI50 (A498) | GI50 (CAKI-1) | GI50 (CCRF-CEM) | GI50 (HCT-116) | GI50 (HL-60) | GI50 (HOP-62) | GI50 (Hs-578T) | GI50 (K562) | GI50 (LOX IMVI) | GI50 (M14) | GI50 (MDA-MB-231) | GI50 (NCI-H460) | GI50 (NCI-H522) | GI50 (OVCAR-4) | GI50 (OVCAR-8) | GI50 (SK-MEL-28) | GI50 (SK-OV-3) | GI50 (UO-31) |
| --- | --- | --- | --- | --- | --- | --- | --- | --- | --- | --- | --- | --- | --- | --- | --- | --- | --- | --- | --- |
| COc1cc2nc(-c3ccccc3)cc(O)c2cc1OC | 27.8 µM (inactive) | 40.6 µM (inactive) | 23.6 µM (inactive) | 8 µM (inactive) | 6.1 µM (inactive) | 5.78 µM (inactive) | 19 µM (inactive) | 25.1 µM (inactive) | 4.76 µM (inactive) | 10.7 µM (inactive) | 9.02 µM (inactive) | 26.7 µM (inactive) | 11.2 µM (inactive) | 5.83 µM (inactive) | > 73.3 µM (inactive) | 35.1 µM (inactive) | 36.2 µM (inactive) | 35.6 µM (inactive) | 52 µM (inactive) |
| O=C1/C(=C\c2cccc(Oc3ccccc3)c2)SC(c2ccccc2)N1c1ccccc1 (centres undefined) | > 100 µM (inactive) | > 100 µM (inactive) | > 100 µM (inactive) | 22 µM (inactive) | 20.1 µM (inactive) | 46.8 µM (inactive) | > 100 µM (inactive) | > 100 µM (inactive) | 23.3 µM (inactive) | 31.9 µM (inactive) | 71.6 µM (inactive) | > 100 µM (inactive) | > 100 µM (inactive) | 17.1 µM (inactive) | 75.2 µM (inactive) | 42.2 µM (inactive) | 81.1 µM (inactive) | > 100 µM (inactive) | > 100 µM (inactive) |
| O=C(/C=C/c1ccccc1Br)c1ccccc1 | 2.07 µM (inactive) | 3.39 µM (inactive) | 2.96 µM (inactive) | 0.259 µM (active) | 1.89 µM (inactive) | 1.35 µM (inactive) | 13.4 µM (inactive) | 5.02 µM (inactive) | 1.94 µM (inactive) | 1.36 µM (inactive) | 6.61 µM (inactive) | 13.2 µM (inactive) | 4.37 µM (inactive) | 2.65 µM (inactive) | 1.77 µM (inactive) | 2.63 µM (inactive) | 3.69 µM (inactive) | 16.9 µM (inactive) | 5.55 µM (inactive) |
| CCOC(=O)CCC(NC(=O)c1ccc(Oc2nc3ccccc3nc2-c2ccccc2)cc1)C(=O)OCC (centres undefined) | 3.67 µM (inactive) | > 50.1 µM (inactive) | 19.5 µM (inactive) | > 100 µM (inactive) | 12.9 µM (inactive) | > 100 µM (inactive) | 11.2 µM (inactive) | 7.08 µM (inactive) | > 60.4 µM (inactive) | 43.7 µM (inactive) | > 62.1 µM (inactive) | 10.6 µM (inactive) | > 80.4 µM (inactive) | 11.3 µM (inactive) | 6.55 µM (inactive) | 3.55 µM (inactive) | 50.6 µM (inactive) | 27.9 µM (inactive) | 34 µM (inactive) |
| O=c1[nH][nH]c(=S)c(=O)[nH]1 | > 100 µM (inactive) | > 100 µM (inactive) | > 100 µM (inactive) | > 100 µM (inactive) | > 100 µM (inactive) | > 100 µM (inactive) | > 100 µM (inactive) | > 100 µM (inactive) | > 100 µM (inactive) | > 100 µM (inactive) | > 100 µM (inactive) | > 100 µM (inactive) | > 100 µM (inactive) | > 100 µM (inactive) | > 100 µM (inactive) | > 100 µM (inactive) | > 100 µM (inactive) | > 100 µM (inactive) | > 100 µM (inactive) |
| O=C(NC(O)(C(F)(F)F)C(F)(F)F)c1ccccc1 | > 100 µM (inactive) | > 100 µM (inactive) | > 100 µM (inactive) | > 100 µM (inactive) | > 100 µM (inactive) | > 100 µM (inactive) | > 100 µM (inactive) | > 100 µM (inactive) | > 100 µM (inactive) | > 100 µM (inactive) | > 100 µM (inactive) | > 100 µM (inactive) | > 100 µM (inactive) | > 100 µM (inactive) | > 100 µM (inactive) | > 100 µM (inactive) | > 100 µM (inactive) | > 100 µM (inactive) | > 100 µM (inactive) |
